This note sets out measurements from patent US10173981B2, “Picolinamides as fungicides” (DOW AGROSCIENCES LLC, priority 2014, dated 2019).

Holding throughout (type): in vivo
One assay deals with Zymoseptoria tritici. As to the kind of experiment: Fungicidal activity: leaf blotch of wheat (SEPTTR), wheat seedlings. Conditions: for pest or weed control at 121.5 g/ha: Low Volume Cereal Activity at 121.5 g/Ha; for pest or weed control at 100 ppm: High volume, wheat. As for the experimental part: (§1) All fungicides were evaluated using the aforementioned method for their activity vs. all target diseases, unless stated otherwise. Wheat leaf blotch and brown rust activity were also evaluated using track spray applications, in which case the fungicides were formulated as EC formulations, containing 0.1% Trycol 5941 in the spray solutions. Wheat plants (variety Yuma) were grown from seed in a greenhouse in 50% mineral soil/50% soil-less Metro mix until the first leaf was fully emerged, with 7-10 seedlings per pot. These plants were inoculated with an aqueous spore suspension of Zymoseptoria tritici either prior to or after fungicide treatments. After inoculation the plants were kept in 100% relative humidity (one day in a dark dew chamber followed by two to three days in a lighted dew chamber at 20° C.) to permit spores to germinate and infect the leaf. The plants were then transferred to a greenhouse set at 20° C. for disease to develop. When disease symptoms were fully expressed on the 1st leaves of untreated plants, infection levels were assessed on a scale of 0 to 100 percent disease severity. Percent disease control was calculated using the ratio of disease severity on treated plants relative to untreated plants.

The test system of another assay is Phakopsora pachyrhizi. As to the kind of experiment: Fungicidal activity: Asian soybean rust (PHAKPA), soybean seedlings. The conditions noted are these: High volume; for pest or weed control at 25 ppm: Phakopsora pachyrhizi.
In a further assay the test system is Puccinia triticina. Nature of the assay: Fungicidal activity: wheat brown rust (PUCCRT), wheat seedlings. Conditions: for pest or weed control at 121.5 g/ha: Low Volume Cereal Activity at 121.5 g/Ha; for pest or weed control at 100 ppm: High volume, wheat. How it is done:
as §1, with “plants. Example B: Evaluation of Fungicidal Activity: Wheat Brown Rust (Puccinia triticina; Synonym: Puccinia recondita f. sp. tritici; Bayer code PUCCRT) Wheat plants (variety Yuma) were grown from seed in a greenhouse in 50% mineral soil/50% soil-less Metro mix until the first leaf was fully emerged, with 7-10 seedlings per pot. These plants were inoculated with an aqueous spore suspension of Puccinia triticina either prior to or after fungicide treatments. […] The plants were then transferred to a greenhouse set at 24° C. for disease to develop. Fungicide formulation, application and disease assessment followed the procedures as described in the Example A.” for “plants.”

The subject of another assay is Alternaria solani. As to the kind of experiment: Fungicidal activity: tomato early blight (ALTESO), tomato plants. Conditions: 1DP, high volume, read-out: ALTESO (% control rating).
The subject of the next assay is Cercospora beticola. Nature of the assay: Fungicidal activity: leaf spot of sugar beets (CERCBE). Conditions: 1DP, high volume, sugar beet, read-out: CERCBE (% control rating).
The test system of assay [1] is Colletotrichum lagenarium. As to the kind of experiment: Fungicidal activity: cucumber anthracnose (COLLLA), cucumber seedlings. Conditions: Colletotrichum orbiculare, 1DP, high volume, read-out: COLLLA (% control rating).
The test system of another assay is Venturia inaequalis. As to the kind of experiment: Fungicidal activity: apple scab (VENTIN), apple seedlings. Conditions: 1DP, high volume, read-out: VENTIN (% control rating).
For another assay, the system named is Rhyncosporium secalis. As to the kind of experiment: Fungicidal activity: barley scald (RHYNSE), barley seedlings. The conditions noted are these: Hordeum vulgare, 1DP, high volume, read-out: RHYNSE (% control rating).
The next assay relates to Pyricularia oryzae. Nature of the assay: whole plant or invertebrate. The conditions noted are these: read-out: PYRIOR (% control rating).
For the next assay, the system named is Leptosphaeria nodorum. As to the kind of experiment: Fungicidal activity: wheat glume blotch (LEPTNO), wheat seedlings. Conditions: Parastagonospora nodorum, 1DP, high volume, read-out: LEPTNO (% control rating).
Setting [2] is: 24 h, 1 Day Protectant, read-out: SEPTTR 1 DP (Wheat Leaf Blotch, 1 Day Protectant).
The mark [3] stands for this setting: 72 h, 3 Day Curative, read-out: SEPTTR 3 DC (Wheat Leaf Blotch, 3 Day Curative).
[4] abbreviates: 24 h, 1 day protectant, read-out: PHAKPA 1 DP (% control rating).
[5] abbreviates: 72 h, 3 day curative, read-out: PHAKPA 3 DC (% control rating).
Where [6] appears, read: 24 h, 1 Day Protectant, read-out: PUCCRT 1 DP (Wheat Brown Rust, 1 Day Protectant).
The mark [7] stands for this setting: 72 h, 3 Day Curative, read-out: PUCCRT 3 DC (Wheat Brown Rust, 3 Day Curative).

Where two headings read alike, the source gives them in different places.

Take `COc1cc(C)ccc1[C@@H](Oc1ccccc1)[C@H](C)OC(=O)[C@H](C)NC(=O)c1nccc(OC)c1OC(C)=O` [Example 269]: the pest or weed control at 121.5 g/ha in the assay on Zymoseptoria tritici (setting [2]), in the assay with Zymoseptoria tritici (setting [3]), in the assay on Puccinia triticina (setting [6]) and in the assay with Puccinia triticina (setting [7]) was greater than 80% in each case. Also, the pest or weed control at 25 ppm with Phakopsora pachyrhizi (setting [4]) was greater than 80%; in the assay with Phakopsora pachyrhizi (setting [5]), less than 80%.
For `COc1cc(F)ccc1[C@@H](Oc1ccccc1)[C@H](C)OC(=O)[C@H](C)NC(=O)c1nccc(OC)c1O` [Example 178], the pest or weed control at 100 ppm in the assay on Zymoseptoria tritici (24 h, 1 day protectant, read-out: SEPTTR 1 DP (% control rating)) was greater than 80%; in the assay with Zymoseptoria tritici (72 h, 3 day curative, read-out: SEPTTR 3 DC (% control rating)), greater than 80%; with Puccinia triticina (24 h, 1 day protectant, read-out: PUCCRT 1 DP (% control rating)) it was greater than 80%; in the assay on Puccinia triticina (72 h, 3 day curative, read-out: PUCCRT 3 DC (% control rating)), less than 80%.
Consider `COc1ccnc(C(=O)N[C@@H](C)C(=O)O[C@@H](C)C(Oc2ccc(F)cc2)c2ccc(F)cc2)c1OC(C)=O` (stereo partly shown) [Example 236], for which the pest or weed control at 100 ppm in the assay with Alternaria solani is less than 80%; in the assay with Cercospora beticola, greater than 80%; in assay [1] it was less than 80%; with Venturia inaequalis it was greater than 80%; in the assay on Rhyncosporium secalis, greater than 80%; with Pyricularia oryzae it was greater than 80%. Besides, the pest or weed control at 100 ppm with Leptosphaeria nodorum is greater than 80%. Also, the pest or weed control at 121.5 g/ha with Zymoseptoria tritici (setting [2]), in the assay on Zymoseptoria tritici (setting [3]), with Puccinia triticina (setting [6]) and in the assay with Puccinia triticina (setting [7]) was greater than 80% in each case. Moreover, the pest or weed control at 25 ppm in the assay on Phakopsora pachyrhizi (setting [4]) was greater than 80%; in the assay on Phakopsora pachyrhizi (setting [5]), less than 0%.
On to `COc1cc(F)ccc1[C@@H](Oc1ccccc1)[C@H](C)OC(=O)[C@H](C)NC(=O)c1nccc(OC)c1OC(C)=O` [Example 270], for which the “PHAKPA 1 DP (% control rating)” value in the assay with Phakopsora pachyrhizi (25 ppm, 1 day protectant) is reported as “B (≤80)”. In the assay on Phakopsora pachyrhizi (25 ppm, 3 day curative), the “PHAKPA 3 DC (% control rating)” value is on record as “D (≤0)”.
